Test results reported in ChEMBL document CHEMBL1201862, “PubChem BioAssay data set” (2004).
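96-well plates; 48 h exposure; 5 concentrations. Endpoints by linear interpolation between flanking doses. Not reached: highest tested concentration assigned. GI50: concentration for 50% inhibition of growth.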 The source made the active and inactive calls. Rule as the data show it: active = GI50 up to about 1.1 µM and inactive = higher.

Key:
Assay in all cases: NCI-60 cell line screen, 48 h
A498 = system: A498
A549 = system: A549
CAKI-1 = system: CAKI-1
COLO 205 = system: COLO 205
HCT-116 = system: HCT-116
Hs-578T = system: Hs-578T
KM12 = system: KM12
MDA-MB-435 = system: MDA-MB-435
NCI-H460 = system: NCI-H460
NCI-H522 = system: NCI-H522
NCI/ADR-RES = system: NCI/ADR-RES
OVCAR-3 = system: OVCAR-3
PC-3 = system: PC-3
SF-268 = system: SF-268
SF-295 = system: SF-295
SF-539 = system: SF-539
SN12C = system: SN12C
SNB-19 = system: SNB-19
T47D = system: T47D
U-251 = system: U-251

SMILES	GI50 (A498)	GI50 (A549)	GI50 (CAKI-1)	GI50 (COLO 205)	GI50 (HCT-116)	GI50 (Hs-578T)	GI50 (KM12)	GI50 (MDA-MB-435)	GI50 (NCI-H460)	GI50 (NCI-H522)	GI50 (NCI/ADR-RES)	GI50 (OVCAR-3)	GI50 (PC-3)	GI50 (SF-268)	GI50 (SF-295)	GI50 (SF-539)	GI50 (SN12C)	GI50 (SNB-19)	GI50 (T47D)	GI50 (U-251)
O=C(Nc1cccc(Cl)c1)Nn1cnnc1	> 100 µM (inactive)	> 100 µM (inactive)	> 100 µM (inactive)	> 100 µM (inactive)	> 100 µM (inactive)	> 100 µM (inactive)	> 100 µM (inactive)	> 100 µM (inactive)	> 100 µM (inactive)	> 100 µM (inactive)	> 100 µM (inactive)	> 100 µM (inactive)	> 100 µM (inactive)	> 100 µM (inactive)	> 100 µM (inactive)	> 100 µM (inactive)	> 100 µM (inactive)	> 100 µM (inactive)	> 100 µM (inactive)	> 100 µM (inactive)
N=C(N)N/N=C(/c1ccccc1)c1ccc(O)cc1O	21.9 µM (inactive)	38.1 µM (inactive)	51.5 µM (inactive)	17.5 µM (inactive)	29 µM (inactive)	22 µM (inactive)	30.5 µM (inactive)	19.1 µM (inactive)	27.4 µM (inactive)	15.3 µM (inactive)	95.3 µM (inactive)	26.9 µM (inactive)	29 µM (inactive)	32.6 µM (inactive)	28.2 µM (inactive)	18.5 µM (inactive)	29.4 µM (inactive)	40.6 µM (inactive)	45.3 µM (inactive)	22.5 µM (inactive)
O=c1[nH]ncc2[nH]c3c(c12)CCc1ccccc1-3	27.7 µM (inactive)	29 µM (inactive)	21.5 µM (inactive)	13.2 µM (inactive)	24.7 µM (inactive)	10.4 µM (inactive)	28.2 µM (inactive)	24.9 µM (inactive)	28.2 µM (inactive)	21.5 µM (inactive)	40.4 µM (inactive)	28.2 µM (inactive)	27.2 µM (inactive)	32.1 µM (inactive)	37.8 µM (inactive)	18.5 µM (inactive)	36.5 µM (inactive)	54.3 µM (inactive)	25.2 µM (inactive)	31.6 µM (inactive)
COc1ccc(SCc2cc(OC)ccc2OC)cc1	18.7 µM (inactive)	22.4 µM (inactive)	31.9 µM (inactive)	15.6 µM (inactive)	33.8 µM (inactive)	29.5 µM (inactive)	4.23 µM (inactive)	2.75 µM (inactive)	37.4 µM (inactive)	18.8 µM (inactive)	13.2 µM (inactive)	> 40.6 µM (inactive)	32.8 µM (inactive)	> 56.6 µM (inactive)	32.2 µM (inactive)	39.2 µM (inactive)	55.3 µM (inactive)	34 µM (inactive)	25.5 µM (inactive)	11.2 µM (inactive)
COC(=O)CC1C(COC(C)=O)OC(n2cc(C)c(=O)[nH]c2=O)C1OC(C)=O (configuration not stated)	> 100 µM (inactive)	> 100 µM (inactive)	> 100 µM (inactive)	> 100 µM (inactive)	> 100 µM (inactive)	4.73 µM (inactive)	> 100 µM (inactive)	> 100 µM (inactive)	> 100 µM (inactive)	> 100 µM (inactive)	> 100 µM (inactive)	> 100 µM (inactive)	> 100 µM (inactive)	> 100 µM (inactive)	> 100 µM (inactive)	> 100 µM (inactive)	> 100 µM (inactive)	> 100 µM (inactive)	> 100 µM (inactive)	> 100 µM (inactive)
COC1(OC)CCc2c(sc3ncnc(Nc4cccc(Br)c4)c23)C1	> 100 µM (inactive)	25.9 µM (inactive)	30.6 µM (inactive)	35.4 µM (inactive)	39.3 µM (inactive)	> 100 µM (inactive)	33.4 µM (inactive)	62.2 µM (inactive)	40.7 µM (inactive)	12.4 µM (inactive)	25.5 µM (inactive)	> 100 µM (inactive)	43.3 µM (inactive)	69.5 µM (inactive)	72.8 µM (inactive)	> 100 µM (inactive)	68.4 µM (inactive)	35.5 µM (inactive)	23.1 µM (inactive)	61.5 µM (inactive)
C[N+](C)(C)CCC(=O)N1C/C(=C\c2ccccc2)C(=O)/C(=C/c2ccccc2)C1	20.7 µM (inactive)	14.7 µM (inactive)	6.49 µM (inactive)	3.47 µM (inactive)	1.53 µM (inactive)	4.31 µM (inactive)	1.6 µM (inactive)	2.29 µM (inactive)	7.87 µM (inactive)	2.25 µM (inactive)	1.64 µM (inactive)	3.82 µM (inactive)	2.49 µM (inactive)	5.14 µM (inactive)	3.78 µM (inactive)	5.06 µM (inactive)	2.08 µM (inactive)	5.38 µM (inactive)	2.09 µM (inactive)	3.03 µM (inactive)
Cc1ccc([N+](=O)[O-])cc1S(=O)(=O)Nc1ccc(C2=NNC(c3ccccc3)C2)cc1 (configuration not stated)	13.2 µM (inactive)	19.1 µM (inactive)	11.9 µM (inactive)	16.9 µM (inactive)	13.1 µM (inactive)	22.5 µM (inactive)	13.4 µM (inactive)	17.1 µM (inactive)	15.1 µM (inactive)	13.8 µM (inactive)	21.1 µM (inactive)	4.74 µM (inactive)	16.7 µM (inactive)	16.8 µM (inactive)	3.02 µM (inactive)	28.1 µM (inactive)	19.5 µM (inactive)	30.9 µM (inactive)	4.23 µM (inactive)	
Cc1n[nH]c(=O)n1/N=C/c1ccc([N+](=O)[O-])cc1	> 100 µM (inactive)	> 100 µM (inactive)	30.1 µM (inactive)	> 100 µM (inactive)	> 100 µM (inactive)	78 µM (inactive)	> 100 µM (inactive)	> 100 µM (inactive)	> 100 µM (inactive)	> 100 µM (inactive)	> 100 µM (inactive)	> 100 µM (inactive)	> 100 µM (inactive)	70.6 µM (inactive)	> 100 µM (inactive)	> 100 µM (inactive)	> 100 µM (inactive)		> 100 µM (inactive)	> 100 µM (inactive)
CSc1cc(Cl)c(C(=O)Nc2ccccc2)cc1S(=O)(=O)n1ccnc1O	> 100 µM (inactive)	> 100 µM (inactive)	> 100 µM (inactive)	> 100 µM (inactive)	> 100 µM (inactive)	> 100 µM (inactive)	> 100 µM (inactive)	> 100 µM (inactive)	> 100 µM (inactive)	> 100 µM (inactive)	> 100 µM (inactive)	> 100 µM (inactive)	> 100 µM (inactive)	> 100 µM (inactive)		> 100 µM (inactive)	> 100 µM (inactive)	> 100 µM (inactive)	> 100 µM (inactive)	> 100 µM (inactive)
C[n+]1ccccc1/C=C/c1ccc2c(c1)OCO2	> 10 µM (inactive)	4.59 µM (inactive)	> 10 µM (inactive)	4.55 µM (inactive)	> 10 µM (inactive)	> 10 µM (inactive)	> 10 µM (inactive)	> 10 µM (inactive)	> 10 µM (inactive)	> 10 µM (inactive)	> 10 µM (inactive)	> 10 µM (inactive)	> 10 µM (inactive)	> 10 µM (inactive)	> 10 µM (inactive)	> 10 µM (inactive)	> 10 µM (inactive)	> 10 µM (inactive)	> 10 µM (inactive)	> 10 µM (inactive)
CC[C@H](C)[C@H](NC(=O)[C@@]1(O)[C@H](O)[C@]2(CC)C=CCN3CC[C@@]4(c5cc(Br)c(OC)cc5N(C)[C@@H]14)[C@@H]32)C(=O)OC	25.3 µM (inactive)	20.5 µM (inactive)	22.5 µM (inactive)	14 µM (inactive)	25.5 µM (inactive)	23.2 µM (inactive)	27.2 µM (inactive)	20.5 µM (inactive)	24.3 µM (inactive)	27.5 µM (inactive)	57.8 µM (inactive)	20.7 µM (inactive)	76.7 µM (inactive)	27.7 µM (inactive)	33.8 µM (inactive)	27.5 µM (inactive)	27.2 µM (inactive)	64.3 µM (inactive)	52.4 µM (inactive)	27.8 µM (inactive)
Nc1cccc(-c2cc(O)c3cc4c(cc3n2)OCO4)c1	2.45 µM (inactive)	4.09 µM (inactive)	3.68 µM (inactive)	0.384 µM (active)	0.389 µM (active)	0.389 µM (active)	0.593 µM (active)	0.16 µM (active)	4.28 µM (inactive)	0.273 µM (active)	0.581 µM (active)	0.188 µM (active)	0.644 µM (active)	1.77 µM (inactive)	2.87 µM (inactive)	0.544 µM (active)	4.59 µM (inactive)	2.19 µM (inactive)	> 100 µM (inactive)	1.81 µM (inactive)
O=S(=O)(N/C(=N\O)Nc1ccc(Cl)cc1)c1ccc(S(=O)(=O)c2ccccc2)s1	15.5 µM (inactive)	28.6 µM (inactive)	21.4 µM (inactive)	15.7 µM (inactive)	16.7 µM (inactive)	28.6 µM (inactive)	20.6 µM (inactive)	17 µM (inactive)	14.4 µM (inactive)	16.9 µM (inactive)	27.5 µM (inactive)	18.4 µM (inactive)	25.9 µM (inactive)	23.1 µM (inactive)	26.5 µM (inactive)	24.5 µM (inactive)	17.4 µM (inactive)	33.7 µM (inactive)	15.8 µM (inactive)	20.8 µM (inactive)
